According to EP4076432B1, “COMPOSITION AND METHOD FOR THE PREVENTION AND TREATMENT OF OBESITY” (Vector Vitale IP LLC, priority 2019, dated 2021):
Values joined by “and” are separate entries in the source; they are usually repeats but may differ in a detail not shown here. Identical values can stand only once. “Also recorded” adds a separate entry of the source.

Key:
[1] = Glucose tolerance test; assay type: in vivo, rats; set-up: Glucose tolerance test, 0 min (1 h after effector administration): unit not given here; conditions: for glucose levels in the glucose tolerance test: compared with the control group
Description: 5 animals were used within the same experimental group.

[2] = Intraperitoneal administration of zinc preparations to intact rats (insulin, superoxide dismutase, islets of Langerhans, metals, body weight); assay type: in vivo; conditions: 7 injections; for accumulation of zinc in the kidney tissues / accumulation of zinc in the liver tissues: day 1 and day 7 after withdrawal
Description: The current dose was calculated by zinc.
The rat serum was prepared from whole blood.
The total kidney and liver homogenates were centrifuged at 600 g for 15 minutes.
The optical density was measured at 492 nm.

[3] = tested on: products of oxidative modification of proteins; assay: Serum levels of products of oxidative modification of proteins in obesity model; assay type: in vivo; conditions: DIO rats (high-fat diet), zinc aspartate 4.5 mg/animal intragastrically every third day, week 10
Description: (§1) Animal serum was prepared from whole blood. […] Samples were centrifuged for 15 min at 2500 g.
Proteins were precipitated by adding a 20% TCA solution.

[4] = tested on: pro-inflammatory (IL-1, IL-6, IL-12, IFN-γ) and anti-inflammatory (IL-4, IL-10, TGF) cytokines; assay: Serum cytokine profile in obesity model (immunoenzyme method); assay type: in vivo, rats; conditions: zinc aspartate 4.5 mg/animal intragastrically every third day
Description: as §1

[5] = tested on: pro-inflammatory (IL-1, IL-6, IL-12, IFN-γ) and anti-inflammatory (IL-4, IL-10, TGF) cytokines; assay: Cytokine profile in adipose tissue in obesity model (immunoenzyme method); assay type: in vivo, rats; conditions: zinc aspartate 4.5 mg/animal intragastrically every third day, week 10
Description: Adipose tissue was crushed using cold scissors then transferred to a homogenizer with a loose-fitting Teflon pestle. […] Primary homogenate thus obtained was centrifuged at 600 g for 15 minutes. The supernatant was carefully collected and re-centrifuged at 15,000 g for 15 minutes. The supernatant was then frozen and stored at -80°C until the experiments.
The antigen solution, previously diluted with 0.1 M NaHCO3 buffer, pH 9.6, to a concentration of 10 µg/ml, was incubated in the plate wells for 12 hours at 4°C. Unbound material was removed by washing the wells three times with TBS buffer, first with 0.05% Tween-20, then without Tween-20. Non-specific binding sites were blocked by adding a solution of 5% skim milk or a solution of 1% bovine serum albumin to the plate wells and incubating them for 60 minutes at 37°C. After incubation, the wells were washed three times with TBS, first with 0.05% Tween-20, then without Tween-20. Primary antibodies were diluted in TBS in accordance with the manufacturer's instructions and incubated with the antigen for 60 min at 37°C. After washing with TBS working buffer, first with the addition of 0.05% Tween-20, then without Tween-20, the conjugate of secondary antibodies was added to the wells and incubated for 60 min at 37°C. As with the primary antibodies, secondary antibodies were diluted in TBS in accordance with the manufacturer's instructions. After the washing procedure, phenyldiamine dihydrochloride as substrate in 0.05M phosphate-citrate buffer was added to each well, followed by the addition of 0.3% hydrogen peroxide. After 10 minutes, the reaction time needed for development, 2.5 n H2SO4 was added.
The absorbance at a wavelength of 492 nm was measured using a µQuant microplate spectrophotometer (BioTek Instruments).

[6] = tested on: islets of Langerhans; assay: Morpho-functional analysis of pancreas in obesity model; assay type: in vivo, rats; conditions: zinc aspartate 4.5 mg/animal intragastrically every third day
Description: After fixation, the pieces were rinsed in tap water. Then the material was dehydrated.
Dried preparations were stained with hematoxylin and eosin.

[7] = tested on: peripheral serotonergic system (duodenum); assay: Indicators of the peripheral serotonergic system (duodenum) in obesity model; assay type: in vivo, rats; conditions: zinc aspartate 4.5 mg/animal intragastrically every third day, week 10
Description: (§2) The tissue : buffer ratio was 1:10.
The samples were reprecipitated by centrifugation. […]
(§3) The supernatant was used in further studies.

[8] = tested on: serotonergic system (serum); assay: Serum tryptophan, serotonin and monoamine oxidase activity in obesity model; assay type: in vivo, rats; conditions: zinc aspartate 4.5 mg/animal intragastrically every third day, week 10
Description: as §1
(§4) The samples were reprecipitated by centrifugation.
(§5) University. Medicine. - 2000. - 1, No. 494. - P. 40-43.

[9] = tested on: central serotonergic system (brain); assay: Indicators of the central serotonergic system (brain) in obesity model; assay type: in vivo, rats; conditions: zinc aspartate 4.5 mg/animal intragastrically every third day, week 10
Description: The animal's head was separated from the body and the skull was carefully cut. The brain was carefully lifted with a scalpel from the bony vault, all cranial nerves were amputated and the brain was removed from the skull. The brain was divided into two parts with a longitudinal incision made between the hemispheres.
as §2, §4, §5, §3

[10] = tested on: superoxide dismutase; assay: Serum superoxide dismutase activity in obesity model; assay type: in vivo; conditions: DIO rats (high-fat diet), zinc aspartate 4.5 mg/animal intragastrically every third day, week 10
Description: To measure superoxide dismutase activity, a method based on the ability of this enzyme to inhibit auto-oxidation of adrenaline was used.
Serum aliquots were added to microplate wells containing 0.2M bicarbonate buffer, pH 10. The reaction was initiated by adding 0.1% adrenaline solution in each well. A relevant volume of buffer was added to the "blank" wells to which no test sample was added. The optical density was measured at a wavelength of 347 nm using a µQuant microplate spectrophotometer (BioTek Instruments) at the 4th and 8th minute after adrenaline was added to the wells. The enzyme activity was expressed in relative units/min/mg.

[11] = Serum lipids, alkaline phosphatase activity and albumin in obesity model; assay type: in vivo, rats; conditions: table is an image
Description: Test kit // Pliva-Lachema Diagnostika. - 2008.
The alkaline phosphatase activity was expressed in relative units.

[12] = Anthropometric values, amount and calorie content of food in high-fat diet induced obesity model; conditions: zinc aspartate 4.5 mg/animal intragastrically every third day; for BMI (g/cm^2) / Weight gain as of the end of the experiment (%): week 10
Description: White non-pedigree rats with an initial weight of 195-205±10 g were used in the experiment.
Before the start of the experiment, animals were maintained on a standard diet of the vivarium. To induce obesity in experimental animals, they were fed high-fat diet which consisted of standard feed (60%), lard (10%), chicken eggs (10%), sucrose (9%), peanuts (5%), dry milk (5%) and sunflower oil (1%) (1%) (see X. H. Shen et al., Exp. Biol. and Med. 235: 47-51 (2010)).
Animals in all groups were weighed once a week after an overnight fast. The amount of feed to be consumed by the animals was determined daily. At the end of a 10-week period of the development of obesity models, 24 hours after the last administration of the zinc isotope solution, animals were removed from their cages and decapitated.
The body mass index (BMI) (the ratio of body weight (g) to the square of body length (cm^2)) was calculated at the end of the experiment.
Animals with an initial weight of 195-205±10 g maintained on the standard diet of the vivarium before performing obesity models were used in the experiments.
Animals in all groups were weighed once a week after an overnight fast. The amount of feed to be consumed by the animals was determined daily.

[13] = 3750 µg of zinc per 1 kg intraperitoneally every other day
[14] = 3750 µg of zinc per 1 kg intraperitoneally
[15] = DIO rats (high-fat diet), week 10
[16] = control rats (standard diet), week 10
[17] = rats having obesity (high-fat diet)

CC(=O)[O-].CC(=O)[O-].[Zn+2] [Zn acetate, Zn(CH3COO)2, reference compound]
Glucose tolerance test, 0 min (1 h after effector administration) ([1]; blood glucose, fast overnight, dose: 5 mg/kg in a volume of 2 ml, individual animals 1-5, 5 mg/kg): 4.6 and 5.2 (2×) and 4.9 and 5.1 | Glucose tolerance test, 60 min (1 h after glucose administration) ([1]; blood glucose, glucose 3 g/kg body weight in 2 ml, dose: 5 mg/kg in a volume of 2 ml, individual animals 1-5, 5 mg/kg): 7.2 (2×) and 6.9 and 7.3 and 6.8 | glucose levels in the glucose tolerance test [1]: glucose levels also dropped, though not so strongly | serum insulin levels at day 7 after the withdrawal [2, 13]: a drop in the insulin levels to the value of those of intact/control animals | serum insulin levels on the first day after the drug withdrawal [2, 13]: a significant increase | accumulation of zinc in the kidney tissues [2, 14]: significantly increased | accumulation of zinc in the liver tissues [2, 14]: significantly increased

N[C@@H](CC(=O)[O-])C(=O)[O-].[Zn+2] [^64Zne, zinc aspartate]
glucose levels in the glucose tolerance test ([1]; listed as zinc isotope): a drop in glucose concentration; also recorded: a decrease in glucose levels | glucose levels in the glucose tolerance test ([1]; listed as zinc isotope ^64Zn): a significant decrease in glucose levels | Aldehyde-dinitrophenyl-hydrazones, nmol/mg protein [3]: 0.253±0.012 nmol/mg protein | Ketone-dinitrophenyl-hydrazones, nmol/mg protein [3]: 0.200±0.024 nmol/mg protein | IFN-γ level [4, 15]: 4.1±1.2 RU/mg protein | IL-1 level [4, 15]: 4.2±0.4 RU/mg protein | IL-4 level [4, 15]: 5.6±1.6 RU/mg protein | IL-6 level [4, 15]: 5.1±0.4 RU/mg protein | IL-10 level [4, 15]: 6.8±1.1 # RU/mg protein | IL-12 level [4, 15]: 2.4±0.06 RU/mg protein | TGF level [4, 15]: 5.7±0.3 # RU/mg protein | TGF level ([4]; DIO rats (high-fat diet), week 10, listed as Zinc): 5.7±0.3 RU/mg protein | IFN-γ level [4, 16]: 4.6±0.6 RU/mg protein | IL-1 level [4, 16]: 3.5±0.7 RU/mg protein | IL-4 level [4, 16]: 4.6±0.8 RU/mg protein | IL-6 level [4, 16]: 4.3±0.2 RU/mg protein | IL-10 level [4, 16]: 4.1±0.5 RU/mg protein | IL-12 level [4, 16]: 0.3±0.04 RU/mg protein | TGF level [4, 16]: 4.1±0.4 RU/mg protein | IFN-γ level ([5]; DIO rats (high-fat diet)): 4.9±0.8 RU/mg protein | IL-4 level ([5]; DIO rats (high-fat diet)): 5.1±1.2 RU/mg protein | IL-6 level ([5]; DIO rats (high-fat diet)): 6.1±0.7 RU/mg protein | IL-10 level ([5]; DIO rats (high-fat diet)): 5.8±0.8 RU/mg protein | IL-12 level ([5]; DIO rats (high-fat diet)): 1.99±0.01 RU/mg protein | TGF level ([5]; DIO rats (high-fat diet)): 5.2±0.9 RU/mg protein | IFN-γ level ([5]; control rats (standard diet)): 5.0±0.8 RU/mg protein | IL-1 level ([5]; control rats (standard diet)): 4.9±1.7 RU/mg protein | IL-4 level ([5]; control rats (standard diet)): 5.0±0.4 RU/mg protein | IL-6 level ([5]; control rats (standard diet)): 5.4±0.3 RU/mg protein | IL-10 level ([5]; control rats (standard diet)): 4.9±0.2 RU/mg protein | IL-12 level ([5]; control rats (standard diet)): 1.0±0.03 RU/mg protein | TGF level ([5]; control rats (standard diet)): 5.1±0.6 RU/mg protein | cross-sectional surface area of the islets of Langerhans, increase compared with the obesity group [6, 17]: 43% | cross-sectional surface area of the islets of Langerhans, lower than the control value [6, 17]: 29% | cross-sectional surface area of the islets of Langerhans, decrease compared with the control group ([6]; rats that ate a standard diet): 39% | Indoleamine dioxygenase activity, µmol/mg protein ([7]; DIO rats (high-fat diet)): 1768 ± 274 µmol/mg protein | Monoamine oxidase activity, RU/mg protein ([7]; DIO rats (high-fat diet)): 1.72 ±0.03 RU/mg protein | Serotonin ([7]; DIO rats (high-fat diet)): 9.73 ± 0.82 µg/g | Tryptophan ([7]; DIO rats (high-fat diet)): 89.4 ± 8.99 µg/g | Tryptophan decarboxylase activity, RU/mg protein ([7]; DIO rats (high-fat diet)): 0.78 ± 0.19 RU/mg protein | Tryptophan hydroxylase activity, RU/mg protein ([7]; DIO rats (high-fat diet)): 253 ± 58 RU/mg protein | Indoleamine dioxygenase activity, µmol/mg protein ([7]; control rats (standard diet)): 2150 ± 231 µmol/mg protein | Monoamine oxidase activity, RU/mg protein ([7]; control rats (standard diet)): 3.82 ±0.07 RU/mg protein | Serotonin ([7]; control rats (standard diet)): 7.41 ± 0.54 µg/g | Tryptophan ([7]; control rats (standard diet)): 154.7 ± 13.6 µg/g | Tryptophan decarboxylase activity, RU/mg protein ([7]; control rats (standard diet)): 0.79 ± 0.22 RU/mg protein | Tryptophan hydroxylase activity, RU/mg protein ([7]; control rats (standard diet)): 375 ± 61 RU/mg protein | Monoamine oxylase activity, RU/mg protein ([8]; DIO rats (high-fat diet)): 3.11±0.08 RU/mg protein | Serotonin ([8]; DIO rats (high-fat diet)): 6.33 ± 0.51 µg/g | Tryptophan ([8]; DIO rats (high-fat diet)): 66.65 ± 9.62 µg/g | Monoamine oxylase activity, RU/mg protein ([8]; control rats (standard diet)): 2.52±0.03 RU/mg protein | Serotonin ([8]; control rats (standard diet)): 10.16 ± 0.62 µg/g | Tryptophan ([8]; control rats (standard diet)): 56.12 ± 7.58 µg/g | Indoleamine dioxygenase activity, µmol/mg protein ([9]; DIO rats (high-fat diet)): 2007 ± 175 µmol/mg protein | Monoamine oxidase activity, RU/mg protein ([9]; DIO rats (high-fat diet)): 0.99±0.08 RU/mg protein | Serotonin ([9]; DIO rats (high-fat diet)): 20.1 ± 3.21 µg/g | Tryptophan ([9]; DIO rats (high-fat diet)): 31.56 ± 2.14 µg/g | Tryptophan decarboxylase activity, RU/mg protein ([9]; DIO rats (high-fat diet)): 1.86 ± 0.37 RU/mg protein | Tryptophan hydroxylase activity, RU/mg protein ([9]; DIO rats (high-fat diet)): 286 ± 17 RU/mg protein | Indoleamine dioxygenase activity, µmol/mg protein ([9]; control rats (standard diet)): 1178 ± 267 µmol/mg protein | Monoamine oxidase activity, RU/mg protein ([9]; control rats (standard diet)): 0.91 ±0.06 RU/mg protein | Serotonin ([9]; control rats (standard diet)): 25.51 ± 2.71 µg/g | Tryptophan ([9]; control rats (standard diet)): 87.71 ± 3.41 µg/g | Tryptophan decarboxylase activity, RU/mg protein ([9]; control rats (standard diet)): 1.63 ± 0.41 RU/mg protein | Tryptophan hydroxylase activity, RU/mg protein ([9]; control rats (standard diet)): 291 ± 29 RU/mg protein | Superoxide dismutase activity, RU/ min per mg protein [10]: 4.5±0.43 # RU/ min per mg protein | levels of triglycerides, cholesterol and free fatty acids in the serum ([11]; animals fed a high-fat diet, zinc aspartate 2.25 mg/ml intragastrically in a volume of 2 ml): almost at the same level as in the control group | alkaline phosphatase activity ([11]; serum, animals on high-fat diet treated intragastrically): higher than both in the group of diet-induced obesity models and in the control group | albumin values ([11]; serum, obese animals treated intragastrically, versus untreated obese animals): had no effect on albumin values | body weight of rats [2, 13]: a significant increase in the body weight | serum insulin levels at day 7 after the withdrawal [2, 13]: insulin levels in the blood of animals increased | serum insulin levels on the first day after the drug withdrawal [2, 13]: slightly higher than in the group of intact animals | serum insulin levels at day 7 after the withdrawal ([2]; 3750 µg of zinc per 1 kg intraperitoneally every other day, listed as zinc isotope): a significant increase in the insulin levels | accumulation of zinc in the kidney tissues [2, 14]: significantly increased | accumulation of zinc in the liver tissues [2, 14]: significantly increased | area of islets of Langerhans ([2]; 3750 µg of zinc per 1 kg intraperitoneally, day 7 after the last administration, compared to control group and zinc acetate group): a significant increase in the islet area | Amount of food consumed ([12]; DIO rats (high-fat diet)): 29 g/day | Calorie content of food ([12]; DIO rats (high-fat diet)): 823 kJ/day | BMI (g/cm^2) ([12]; DIO rats (high-fat diet)): 0.65 g/cm^2 | Weight gain as of the end of the experiment (%) ([12]; DIO rats (high-fat diet)): 62% | Amount of food consumed ([12]; control rats (standard diet)): 32 g/day | Calorie content of food ([12]; control rats (standard diet)): 490 kJ/day | BMI (g/cm^2) ([12]; control rats (standard diet)): 0.59 g/cm^2 | Weight gain as of the end of the experiment (%) ([12]; control rats (standard diet)): 59%
